Results published in patent US6818648B2, “Aryloxy- and arylthiosubstituted pyrimidines and triazines and derivatives thereof” (Bristol-Myers Squibb Pharma, priority 1996, dated 2004).

Structure (SMILES) | melting point [°C]
C=C(C)c1cc(Br)c(Oc2nc(C)nc(N3CCOCC3)n2)c(OC)c1 [Example 5, 2-[2-bromo-6-methoxy-4-(1-methylethenyl)phenoxy]-4-methyl-6-(4-morpholinyl)-1,3,5-triazine] | 63 to 67
C=C(C)c1cc(Br)c(Oc2nc(C)nc(N3CCOCC3)n2)c(OC)c1 [Example 6, 2-[2-bromo-6-methoxy-4-(1-methylethenyl)phenoxy]-4-methyl-6-(4-morpholinyl)-1,3,5-triazine] | 131 to 133
